The values that follow come from US8722849B2, “Polypeptides” (Novo Nordisk A/S, priority 2011, dated 2014).

The structures appear in SMILES notation. Read-outs that look alike come from different tables or passages of the source. Starred links: 1 amine or outer side, 2 acyl side, 3 side chain; linkers in the order of their positions; H or OH if unused. Positions of bridges follow the written chain, without caps; N, C: chain ends. Residues, ends and D or L forms follow the SMILES beside them. *: point of attachment. C20 diacid = O=C(O)CCCCCCCCCCCCCCCCCCC(=O)*; γGlu = O=C(O)[C@H](CCC(=O)[*:2])N[*:1]

Series [1] concerns the target T1, human amylin receptor (amylin 3(a) receptor: human calcitonin receptor + RAMP-3) (Homo sapiens, UniProt O60896+P30988).
T1 construct: expressed in transfected cells; host or cells: BHK570
T1 sequence (P30988 25-474): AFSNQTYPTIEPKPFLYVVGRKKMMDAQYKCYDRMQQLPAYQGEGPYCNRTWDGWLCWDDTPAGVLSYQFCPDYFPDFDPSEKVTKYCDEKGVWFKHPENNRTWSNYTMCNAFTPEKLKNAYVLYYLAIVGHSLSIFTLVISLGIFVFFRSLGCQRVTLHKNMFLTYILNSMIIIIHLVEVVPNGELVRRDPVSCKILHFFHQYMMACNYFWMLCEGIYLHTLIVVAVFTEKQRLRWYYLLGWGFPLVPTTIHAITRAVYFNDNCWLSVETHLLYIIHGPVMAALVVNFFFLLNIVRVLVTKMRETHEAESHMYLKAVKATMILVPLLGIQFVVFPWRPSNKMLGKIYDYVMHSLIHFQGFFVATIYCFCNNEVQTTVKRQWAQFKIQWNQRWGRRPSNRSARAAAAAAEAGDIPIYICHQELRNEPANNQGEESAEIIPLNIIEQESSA
T1 sequence (O60896 24-148 partner): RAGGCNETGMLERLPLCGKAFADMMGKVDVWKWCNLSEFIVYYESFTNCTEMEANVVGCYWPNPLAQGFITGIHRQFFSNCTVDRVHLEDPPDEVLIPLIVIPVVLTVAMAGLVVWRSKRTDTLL
The series is described as follows: Assay (II)a functional CRE-luciferase assay, human amylin receptor. The note with it: Table 2; BHK amylin 3(a)-receptor/CRE-luc cells. In kind it is cell-based.

Series [2] concerns the target T2, human calcitonin receptor (Homo sapiens, UniProt P30988).
T2 construct: expressed in transfected cells; host or cells: BHK570
T2 sequence (P30988 25-474): T1 sequence (P30988 25-474)
As to the kind of experiment: Assay (II)a functional CRE-luciferase assay, human calcitonin receptor. It counts as cell-based. Conditions: Table 7; human calcitonin (CTa) receptor.

Series [3] can be described thus: Assay (III) ThT fibrillation assay for physical stability. In kind it is physicochemical. The gist of the method: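 Freshly prepared formulations, pH-adjusted, with 1 μM ThT; four or eight replicates incubated at 37 °C under 960 rpm orbital shaking. Fluorescence (ex 444/em 485 nm) read every 20 min; […]. Peptide concentration measured by RP-HPLC before and after the run.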

Series [4] is described as follows: Assay (IV) determination of solubility. In kind it is physicochemical. Put shortly: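 Eight 100 mM buffers (glycylglycine pH 3.0–5.0, bistrispropane pH 6.0–8.0) each received an equal volume of polypeptide dissolved in water at ~500 nmol/ml. Soluble polypeptide was measured by HPLC following 18 hours at room temperature and centrifugation.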
The mark [5] stands for this setting: bistrispropane buffer, pH 6, pH 6.0, read-out: Solubility pH 6.0.
[6] abbreviates: bistrispropane buffer, pH 6.5, pH 6.5, read-out: Solubility pH 6.5.
The mark [7] stands for this setting: bistrispropane buffer, pH 7, pH 7.0, 18 hours at room temperature, Table 3, read-out: Solubility pH 7.0.
The mark [8] stands for this setting: bistrispropane buffer, pH 7, pH 7.0, Table 8, read-out: Solubility pH 7.0.
[9] abbreviates: bistrispropane buffer, pH 7, pH 7.0, Table 9, read-out: Solubility pH 7.0.
Where [10] appears, read: bistrispropane buffer, pH 7, pH 7.0, read-out: Solubility pH 7.0.
[11] abbreviates: bistrispropane buffer, pH 7.5, pH 7.5, Table 9, read-out: Solubility pH 7.5.
Setting [12] is: bistrispropane buffer, pH 7.5, pH 7.5, read-out: Solubility pH 7.5.
[13] abbreviates: bistrispropane buffer, pH 8, pH 8.0, read-out: Solubility pH 8.0.
[14] abbreviates: glycylglycine buffer, pH 3, pH 3.0, read-out: Solubility pH 3.0.
Setting [15] is: glycylglycine buffer, pH 4, pH 4.0, 18 hours at room temperature, Table 2, read-out: Solubility pH 4.0.
[16] abbreviates: glycylglycine buffer, pH 4, pH 4.0, read-out: Solubility pH 4.0.
Setting [17] is: glycylglycine buffer, pH 5, pH 5.0, read-out: Solubility pH 5.0.

As for `CC[C@H](C)[C@H](NC(=O)[C@@H]1CCCN1C(=O)CNC(=O)[C@H](Cc1ccccc1)NC(=O)[C@H](CC(N)=O)NC(=O)[C@H](CC(N)=O)NC(=O)[C@H](CO)NC(=O)[C@H](CO)NC(=O)[C@H](Cc1c[nH]cn1)NC(=O)[C@H](CCCNC(=N)N)NC(=O)[C@H](CC(C)C)NC(=O)[C@H](Cc1ccccc1)NC(=O)[C@H](CCC(=O)O)NC(=O)[C@H](C)NC(=O)[C@H](CC(C)C)NC(=O)[C@H](CCCNC(=N)N)NC(=O)[C@H](CCC(N)=O)NC(=O)[C@@H](NC(=O)[C@H](C)NC(=O)[C@@H]1CSSC[C@H](NC(=O)[C@H](CCC(=O)O)NC(=O)[C@H](CCCNC(=N)N)NC(=O)[C@H](CCC(=O)O)NC(=O)CC[C@H](NC(=O)CCCCCCCCCCCCCCCCCCC(=O)O)C(=O)O)C(=O)N[C@@H](CC(N)=O)C(=O)N[C@@H]([C@@H](C)O)C(=O)N[C@@H](C)C(=O)N[C@@H]([C@@H](C)O)C(=O)N1)[C@@H](C)O)C(=O)N[C@@H](CC(C)C)C(=O)N1CCC[C@H]1C(=O)N1CCC[C@H]1C(=O)N[C@H](C(=O)N[C@@H](CC(N)=O)C(=O)N[C@H](C(=O)NCC(=O)N[C@@H](CO)C(=O)N[C@@H](CC(N)=O)C(=O)N[C@H](C(=O)N1CCC[C@H]1C(N)=O)[C@@H](C)O)C(C)C)[C@@H](C)O` [Example 124, N-alpha-[(S)-4-Carboxy-4-(19-carboxynonadecanoylamino)butyryl]-Glu-Arg-[Glu1,Glu14,Arg17,Pro37]-pramlintide] ({C20 diacid-γGlu}-ERECNTATCATQRLAEFLRHSSNNFGPILPPTNVGSNTP-NH2; disulfide 4-9 (inferred)), the results for the concentration for a half-maximal effect (EC50) in series [1] and in series [2] were 0.0895 nM and 0.367 nM, respectively. For the same compound, the “ThT pH 4.0 lag time” value in series [3] (Table 8), in series [3] (Table 9) and in series [3] (ThT fibrillation assay) was above 45 h throughout. In addition, the “ThT pH 4.0 lag time (h)” value in series [3] (ThT fibrillation assay) is given as above 45 h. Also, the solubility at 18 h in series [4] (setting [5]), in series [4] (setting [6]), in series [4] (setting [7]), in series [4] (setting [8]), in series [4] (setting [9]) and in series [4] (setting [10]) was above 200 µM each time. The solubility at 18 h in series [4] (setting [11]), in series [4] (setting [12]), in series [4] (setting [13]), in series [4] (setting [14]), in series [4] (setting [15]) and in series [4] (setting [16]) was above 200 µM in each case. Further, the solubility at 18 h in series [4] (setting [17]) is above 200 µM.

For the compound `CC[C@H](C)[C@H](NC(=O)[C@@H]1CCCN1C(=O)CNC(=O)[C@H](Cc1ccccc1)NC(=O)[C@H](CC(N)=O)NC(=O)[C@H](CC(N)=O)NC(=O)[C@H](CO)NC(=O)[C@H](CO)NC(=O)[C@H](Cc1c[nH]cn1)NC(=O)[C@@H](NC(=O)[C@H](CC(C)C)NC(=O)[C@H](Cc1ccccc1)NC(=O)[C@H](CCC(=O)O)NC(=O)[C@H](C)NC(=O)[C@H](CC(C)C)NC(=O)[C@H](CCCNC(=N)N)NC(=O)[C@H](CCC(N)=O)NC(=O)[C@@H](NC(=O)[C@H](C)NC(=O)[C@@H]1CSSC[C@H](NC(=O)[C@H](CCCCN)NC(=O)CC[C@H](NC(=O)CCCCCCCCCCCCCCCCCCC(=O)O)C(=O)O)C(=O)N[C@@H](CC(N)=O)C(=O)N[C@@H]([C@@H](C)O)C(=O)N[C@@H](C)C(=O)N[C@@H]([C@@H](C)O)C(=O)N1)[C@@H](C)O)C(C)C)C(=O)N[C@@H](CC(C)C)C(=O)N1CCC[C@H]1C(=O)N1CCC[C@H]1C(=O)N[C@H](C(=O)N[C@@H](CC(N)=O)C(=O)N[C@H](C(=O)NCC(=O)N[C@@H](CO)C(=O)N[C@@H](CC(N)=O)C(=O)N[C@H](C(=O)N1CCC[C@H]1C(N)=O)[C@@H](C)O)C(C)C)[C@@H](C)O` [Example 86, N-alpha-[(S)-4-Carboxy-4-(19-carboxynonadecanoylamino)butyryl]-[Glu14,Pro37]-pramlintide] ({C20 diacid-γGlu}-KCNTATCATQRLAEFLVHSSNNFGPILPPTNVGSNTP-NH2; disulfide 2-7 (inferred); C-terminus assumed), the concentration giving a half-maximal response (EC50) is 0.055 nM in series [1] and 0.0525 nM in series [2]. Moreover, in series [3] (ThT fibrillation assay), the “ThT pH 4.0 lag time (h)” value was 5 h. For the same compound, the solubility at 18 h in series [4] (setting [5]), in series [4] (setting [6]), in series [4] (setting [7]), in series [4] (setting [10]), in series [4] (setting [12]) and in series [4] (setting [13]) was above 200 µM each time. In addition, the solubility at 18 h in series [4] (setting [14]), in series [4] (setting [15]), in series [4] (setting [16]) and in series [4] (setting [17]) was above 200 µM in each case.

Turning to `CC[C@H](C)[C@H](NC(=O)[C@@H]1CCCN1C(=O)CNC(=O)[C@H](Cc1ccccc1)NC(=O)[C@H](CC(N)=O)NC(=O)[C@H](CC(N)=O)NC(=O)[C@H](CO)NC(=O)[C@H](CO)NC(=O)[C@H](Cc1c[nH]cn1)NC(=O)[C@H](Cc1c[nH]cn1)NC(=O)[C@H](CC(C)C)NC(=O)[C@H](Cc1ccccc1)NC(=O)[C@H](CCC(=O)O)NC(=O)[C@H](C)NC(=O)[C@H](CC(C)C)NC(=O)[C@H](CCCNC(=N)N)NC(=O)[C@H](CCC(N)=O)NC(=O)[C@@H](NC(=O)[C@H](C)NC(=O)[C@@H]1CSSC[C@H](NC(=O)[C@H](CCCCN)NC(=O)CC[C@H](NC(=O)CCCCCCCCCCCCCCCCCCC(=O)O)C(=O)O)C(=O)N[C@@H](CC(N)=O)C(=O)N[C@@H]([C@@H](C)O)C(=O)N[C@@H](C)C(=O)N[C@@H]([C@@H](C)O)C(=O)N1)[C@@H](C)O)C(=O)N[C@@H](CC(C)C)C(=O)N1CCC[C@H]1C(=O)N1CCC[C@H]1C(=O)N[C@H](C(=O)N[C@@H](CC(N)=O)C(=O)N[C@H](C(=O)NCC(=O)N[C@@H](CO)C(=O)N[C@@H](CCC(N)=O)C(=O)N[C@H](C(=O)N1CCC[C@H]1C(N)=O)[C@@H](C)O)C(C)C)[C@@H](C)O` [Example 135, N-alpha-[(S)-4-Carboxy-4-(19-carboxynonadecanoylamino)butyryl]-[Glu14,His17,Gln35,Pro37]-pramlintide] ({C20 diacid-γGlu}-KCNTATCATQRLAEFLHHSSNNFGPILPPTNVGSQTP-NH2; disulfide 2-7 (inferred)), the EC50 in series [1] turned out to be 0.103 nM; in series [2] it was 0.097 nM. The “ThT pH 4.0 lag time” value in series [3] (Table 8), in series [3] (Table 9) and in series [3] (ThT fibrillation assay) was above 45 h throughout. Moreover, the “ThT pH 4.0 lag time (h)” value in series [3] (ThT fibrillation assay) was above 45 h. Further, the solubility at 18 h in series [4] (setting [5]), in series [4] (setting [6]), in series [4] (setting [7]), in series [4] (setting [8]), in series [4] (setting [9]) and in series [4] (setting [10]) was above 200 µM in each case. The solubility at 18 h in series [4] (setting [11]), in series [4] (setting [12]), in series [4] (setting [13]), in series [4] (setting [14]), in series [4] (setting [15]) and in series [4] (setting [16]) was above 200 µM each time. Also, the solubility at 18 h in series [4] (setting [17]) is above 200 µM.
